The source of these data is patent US20230270877A1, “Combination Therapy” (Seagen Inc., priority 2020, published 2023).

Square brackets hold non-standard residues; d marks the D form. Peptide text beside a SMILES is read from it. * marks the point of attachment. Dolaproine = CO[C@@H]([C@@H]1CCCN1)[C@@H](C)C(=O)O; Dil = CC[C@H](C)[C@H](NC)[C@@H](CC(=O)O)OC; X1 = C[C@@H](N*)[C@@H](O)c1ccccc1; NMeV = CN[C@H](C(=O)O)C(C)C

The test system of one test is A20 lymphoma cells. The test is described as follows: Immunization with killed CD30-expressing A20 cells and A20 challenge (Example 24). Particulars: mice immunized 2 times with cells killed by the agent; compared to flash freezing; FIG. 24. Format: in vivo. The method, then: A20 cells expressing human CD30 were treated with CD30-Auristatin ADC (BV; SGN-35) or MMAE for 18 hrs. Alternatively, one aliquot of cells was f1ash frozen. Ficoll centrifugation of treated samples was performed to remove live cells. All samples were analyzed for apoptosis and viability by flow cytometry using annexin V/7AAD. Dying and dead cells were washed, resuspended in PBS, and intraperitoneally injected into mice. The mice were immunized 2 times, 7 days apart. Immunized mice rested for 7 additional days, and then were challenged with A20 lymphoma cells, and tumor growth or rejection was monitored over time.

The target in another test is CD40 (Homo sapiens, UniProt P25942). Particulars: cited from earlier work.
The subject of test [1] is acute myeloid leukemia (AML). The note with it: administered alone; cited from earlier work.
Another test concerns CD30+CD8 T cells. The test is described as follows: Proliferation of activated CD30+CD8 T cells treated with CD30 directed vc-MMAE. The note with it: anti-CD3-CD28 beads + 10 ng/mL IL-2, 4 days; vs isotype control; FIG. 2. Type of test: cell-based, human. The method, then: Human primary CD8 T cells were labeled with CSFE and induced to undergo proliferation with anti-CD3-CD28 beads (1 bead per 4 T cells)+10 ng/mL IL-2 for 4 days. […] CD30+CD8 T cells were treated with either CD30 directed vc-MMAE (brentuximab vedotin; BV; SGN-35) or an isotype control. Cells were stained with LIVE/DEAD Fixable Dead Cell Stain (ThermoFisher) and live cells were counted via flow cytometry.

The test system of the next test is Farage cells. Type of test: in vivo. The note with it: single agent, SEA-CD70 3 mg/kg or SGN-35 1 mg/kg.

CD40, sequence (P25942 21-277): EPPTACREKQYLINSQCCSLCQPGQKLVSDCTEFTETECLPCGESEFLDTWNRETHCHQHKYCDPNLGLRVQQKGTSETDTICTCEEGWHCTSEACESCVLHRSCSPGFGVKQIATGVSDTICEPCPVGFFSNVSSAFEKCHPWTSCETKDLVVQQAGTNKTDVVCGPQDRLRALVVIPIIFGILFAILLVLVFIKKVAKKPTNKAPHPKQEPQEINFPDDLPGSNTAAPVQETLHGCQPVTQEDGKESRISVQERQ

With `CC[C@H](C)[C@@H]([C@@H](CC(=O)N1CCC[C@H]1[C@H](OC)[C@@H](C)C(=O)N[C@H](C)[C@@H](O)c1ccccc1)OC)N(C)C(=O)[C@@H](NC(=O)[C@@H](NC)C(C)C)C(C)C` [MMAE, N-methylvaline-valine-dolaisoleuine-dolaproine-norephedrine] (H-[NMeV]V[Dil][Dolaproine]-X1), the “immune responses rejecting implanted A20 cells” value in the test on A20 lymphoma cells is reported as “stronger immune responses”.
Regarding “CP-870,893: a humanized IgG2 agonist antibody to CD40”, the “activity in solid tumor indications” value with CD40 (combined with paclitaxel or carboplatin or gemcitabine) is “encouraging activity”.
“CT-011: anti-PD-1 antibody, a humanized antibody”: the “response in treating acute myeloid leukemia (AML) at relapse” value in test [1] is “failed to show response”.
Take “Dacetuzumab: fucosylated humanized S2C6, agonistic CD40 monoclonal antibody”: the clinical activity result with CD40 (phase 1 study in NHL and phase 2 study in DLBCL) is “some clinical activity”.
Turning to “SGN-35: CD30-targeting ADC containing MMAE conjugated to the monoclonal antibody cAC10 [reference compound]”, the “cell proliferation of primary human CD30+CD8 T cells” value in the test on CD30+CD8 T cells is reported as “not significantly altered”. Also, the “day at which tumors reached an average 5 fold increase of original size” value with Farage cells (day post implant, untreated 28.5) is 46 days. Further, the “days post treatment at which tumors reached an average 5 fold increase” value in the test with Farage cells (untreated 9.5) is listed as 27 days post treatment. In addition, the “immune responses rejecting implanted A20 cells” value in the test with A20 lymphoma cells is “stronger immune responses”.
